Laboratory results taken from PMC11472313, “Development of Fragment-Based Inhibitors of the Bacterial Deacetylase LpxC with Low Nanomolar Activity” (Journal of Medicinal Chemistry, 2024).

Experiments:
[1] = metabolic stability in mouse liver S9 fractions; format: in vitro ADME; conditions: pooled liver S9 fraction, 1 μM compound, 1 mg/mL S9, phase I and II cofactors; for half-life at 1 μM: read-out: metabolic stability in mouse liver S9 fractions t1/2
Description: For the evaluation of combined phase I and phase II metabolic stability, the compound (1 μM) was incubated with 1 mg/mL pooled mouse liver S9 fraction (Xenotech, Kansas City, USA), 2 mM nicotinamide adenine dinucleotide phosphate hydrogen (NADPH), 1 mM UDPGA, 10 mM MgCl2, 5 mM glutathione (GSH), and 0.1 mM 3′-phosphoadenosine 5′-phosphosulfate (PAPS) at 37 °C for 120 min. The metabolic stability of testosterone, verapamil, and ketoconazole were determined in parallel to confirm the enzymatic activity of mouse S9 fractions. The incubation was stopped after defined time points by precipitation of aliquots of S9 enzymes with 2 volumes of cold acetonitrile containing internal standard (150 nM diphenhydramine). Samples were stored on ice until the end of the incubation and the precipitated protein was removed by centrifugation (15 min, 4 °C, 4000g). Concentration of the remaining test compound at the different time points was analyzed by HPLC–MS/MS (TSQ Quantum Access Max, Thermo Fisher, Dreieich, Germany) and used to determine half-life (t1/2).

[2] = log D7.4, HPLC-based method; format: physicochemical; conditions: pH 7.4, HPLC-based; read-out: logD7.4
Description: Log D7.4 was analyzed using an HPLC-based method. The UV retention time of reference compounds with known log D7.4 was determined and plotted toward their log D7.4. Linear regression was used to determine the log D7.4 of unknown compounds. Analysis was performed using a Vanquish Flex HPLC system with a variable wavelength detector (Thermo Fisher, Dreieich, Germany) with the following conditions: EC150/2 NUCLEODUR C18 Pyramid column, […] (Macherey Nagel, Düren, Germany); eluent A: 50 mM NH4OAc pH 7.4, eluent B: acetonitrile, and flow: 0.6 mL/min; gradient elution: (B %): 0–2.5 min: gradient from 0 to 100%, 2.5–3.0 min: 100%, 3.0–3.2 min: gradient from 100 to 0%, 3.2–5.0 min: 0%.

TACE (ADAM-17) = molecular target: T1, TACE (ADAM-17) (Homo sapiens, UniProt P78536); experiment: TACE (ADAM-17) inhibitor screening kit; format: biochemical; conditions: for inhibition at 20 µM: read-out: TACE (% inhibition at 20 μM)
T1 construct: purchased Sigma-Aldrich (Saint Louis, MO)
Description: (§1) Since LpxC and LasB are zinc-dependent enzymes, we investigated potential off-target activity of the three frontrunners on mammalian zinc-dependent enzymes. Our panel comprised three representative matrix-metalloproteases (MMP1–3) and tumor necrosis factor-α converting enzyme (TACE, also known as ADAM17) (Table 6).
(§2) Purification of LasB from P. aeruginosa PA14 supernatant and the subsequent performance of the FRET-based in vitro inhibition assay was performed as described previously.[66] The TACE (ADAM-17) inhibitor screening kit was purchased from Sigma-Aldrich (Saint Louis, MO). MMPs 1–3 along with the SensoLyte 520 Generic MMP Activity Kit Fluorimetric were purchased from AnaSpec (Fremont, CA, USA). The assays were performed according to the guidelines of the respective manufacturer. Fluorescence signals were measured using a CLARIOstar plate reader (BMG Labtech, Ortenberg, Germany).

[3] = microsomal metabolic stability, human; format: in vitro ADME; conditions: human liver microsomes; for half-life: read-out: microsomal metabolic stability t1/2
Description: (§3) Also, the plasma stability of the compounds in mouse plasma was generally low with half-lives between 22.9 min [(S)-13h] and 43.1 min [(S)-13j].
(§4) The microsomal metabolic stability assay as well as the plasma protein binding assay were conducted as described previously.[78]
(§5) Samples were analyzed using an Agilent 1290 Infinity II HPLC system coupled to an AB Sciex QTrap 6500plus mass spectrometer. LC conditions were as follows: column: Agilent Zorbax Eclipse Plus C18, 50 × 2.1 mm, 1.8 μm; temperature: 30 °C; injection volume: 5 μL per sample; flow rate: 700 μL min^–1. Samples were run under acidic conditions. Solvents: (A) water + 0.1% formic acid; (B) 95% acetonitrile/5% H2O + 0.1% formic acid. Gradient elution: (A %): 0–0.1 min: 99%, 0.1–3.5 min: gradient from 99 to 50%, 3.5–3.8 min: gradient from 50 to 0%, 3.8–4.7 min: gradient from 0 to 99%. Mass transitions for controls and compounds are depicted in Table S3.

[4] = MTT-based cytotoxicity assay; format: cell-based; conditions: human, HepG2 cells
Excerpt: An MTT-based assay was employed to evaluate the viability of HepG2 cells after challenge with selected inhibitors and performed as described previously.[77]

[5] = plasma protein binding, human; format: in vitro ADME
Description: as §4

[6] = microsomal metabolic stability, mouse; format: in vitro ADME; conditions: for microsomal CLint: mouse liver microsomes; for half-life: mouse, liver microsomes, read-out: microsomal metabolic stability t1/2
Description: as §3, §4, §5

MMP3 = molecular target: T2, MMP3 (Homo sapiens, UniProt P08254); experiment: MMP3 inhibition (SensoLyte 520 Generic MMP Activity Kit); format: biochemical; conditions: read-out: MMP3 (% inhibition at 100 μM)
T2 construct: purchased AnaSpec (Fremont, CA, USA)
Description: as §1, §2

MMP2 = molecular target: T3, MMP2 (Homo sapiens, UniProt P08253); experiment: MMP2 inhibition (SensoLyte 520 Generic MMP Activity Kit); format: biochemical; conditions: for inhibition at 100 µM: read-out: MMP2 (% inhibition at 100 μM), 100 μM
T3 construct: purchased AnaSpec (Fremont, CA, USA)
T3 sequence (P08253 110-660): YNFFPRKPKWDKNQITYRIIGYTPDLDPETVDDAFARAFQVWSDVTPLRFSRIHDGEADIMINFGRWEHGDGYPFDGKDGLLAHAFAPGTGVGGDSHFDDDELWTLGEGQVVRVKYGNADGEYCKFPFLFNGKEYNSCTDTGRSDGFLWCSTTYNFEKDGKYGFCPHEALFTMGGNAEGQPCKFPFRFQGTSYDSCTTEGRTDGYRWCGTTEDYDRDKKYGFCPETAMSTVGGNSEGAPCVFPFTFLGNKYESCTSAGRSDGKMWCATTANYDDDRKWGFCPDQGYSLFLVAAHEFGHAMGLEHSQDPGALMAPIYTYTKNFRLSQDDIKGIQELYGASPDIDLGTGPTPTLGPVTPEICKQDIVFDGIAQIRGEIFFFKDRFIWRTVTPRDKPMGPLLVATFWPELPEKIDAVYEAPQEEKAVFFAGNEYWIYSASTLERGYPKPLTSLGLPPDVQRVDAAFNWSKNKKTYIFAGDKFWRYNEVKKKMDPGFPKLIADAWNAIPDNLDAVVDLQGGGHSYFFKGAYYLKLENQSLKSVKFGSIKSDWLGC
Description: as §1, §2

T2 sequence (P08254 100-477, species assumed): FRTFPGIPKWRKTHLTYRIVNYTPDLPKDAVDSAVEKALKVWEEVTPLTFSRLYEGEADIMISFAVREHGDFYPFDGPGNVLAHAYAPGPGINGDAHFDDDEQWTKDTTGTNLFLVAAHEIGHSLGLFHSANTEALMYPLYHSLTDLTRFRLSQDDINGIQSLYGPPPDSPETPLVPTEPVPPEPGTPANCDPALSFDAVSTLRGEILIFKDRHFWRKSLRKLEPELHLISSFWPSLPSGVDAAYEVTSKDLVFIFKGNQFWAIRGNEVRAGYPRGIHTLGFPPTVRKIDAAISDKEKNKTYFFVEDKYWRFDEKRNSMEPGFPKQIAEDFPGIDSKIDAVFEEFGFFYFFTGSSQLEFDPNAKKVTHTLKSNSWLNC
T1 sequence (P78536 215-824, species assumed): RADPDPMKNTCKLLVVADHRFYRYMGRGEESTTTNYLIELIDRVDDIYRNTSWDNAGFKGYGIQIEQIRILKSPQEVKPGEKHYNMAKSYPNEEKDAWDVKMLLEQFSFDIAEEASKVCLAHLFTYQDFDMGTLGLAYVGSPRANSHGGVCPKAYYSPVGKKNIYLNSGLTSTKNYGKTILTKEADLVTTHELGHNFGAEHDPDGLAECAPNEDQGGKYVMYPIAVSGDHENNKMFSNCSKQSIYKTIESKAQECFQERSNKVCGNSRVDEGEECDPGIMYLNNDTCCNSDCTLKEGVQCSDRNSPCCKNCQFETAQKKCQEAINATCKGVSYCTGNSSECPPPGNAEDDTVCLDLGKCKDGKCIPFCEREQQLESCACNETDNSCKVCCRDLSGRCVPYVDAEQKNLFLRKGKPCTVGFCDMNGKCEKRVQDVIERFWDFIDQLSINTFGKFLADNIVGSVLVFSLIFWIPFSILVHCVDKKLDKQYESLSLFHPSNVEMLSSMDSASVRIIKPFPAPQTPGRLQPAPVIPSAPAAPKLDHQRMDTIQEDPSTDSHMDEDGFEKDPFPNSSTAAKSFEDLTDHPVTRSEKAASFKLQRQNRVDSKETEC

| SMILES | microsomal CLint at 1 μM [1] [µL/min/mg] | half-life at 1 μM [1] [min] | chromatographic logD [2] | inhibition at 20 µM (TACE (ADAM-17)) [%] | microsomal CLint [3] [µL/min/mg] | half-life [3] [min] | IC50 [4] [µM] | fraction unbound [5] | microsomal CLint [6] [µL/min/mg] | half-life [6] [min] | inhibition at 100 µM (MMP3) [%] | inhibition at 100 µM (MMP2) [%] | inhibition at 100 µM (TACE (ADAM-17); 100 μM (as printed in text)) [%] | MMP2 (% inhibition at 100 μM) (MMP2; 100 μM) [%] | IC50 (TACE (ADAM-17)) [µM] | selectivity factor for TACE (TACE (ADAM-17); TACE versus LpxC) | IC50 (MMP2) [µM] | selectivity factor for MMP2 (MMP2; MMP2 versus LpxC) |
| --- | --- | --- | --- | --- | --- | --- | --- | --- | --- | --- | --- | --- | --- | --- | --- | --- | --- | --- |
| O=C(NC[C@H](OCc1ccc(C#Cc2ccc(CN3CCOCC3)cc2)cc1)C(=O)NO)c1c[nH]c2ccccc12 [(S)-13h] | ~45 | 15.5 ± 1 | 3.63 | < 10 | < 23 | > 60 | 15.1 ± 1.7 | 0.0175 | < 23 | > 60 | < 10 | 15 ± 3 |  |  |  |  |  |  |
| O=C(NC[C@H](OCc1ccc(C#Cc2ccc(CN3CCOCC3)cc2)cc1)C(=O)NO)c1ccc2[nH]ccc2c1 [(S)-13j] | 27.6 ± 2.7 | 25.5 ± 2.7 | 3.33 | 38 ± 5 | < 23 | > 60 | 8.1 ± 1.4 | 0.0205 | < 23 | > 60 | 16 ± 1 | ~50 | 38 | 47 ± 3 |  |  |  |  |
| O=C(NC[C@H](OCc1ccc(C#Cc2ccc(CN3CCOCC3)cc2)cc1)C(=O)NO)c1cc[nH]n1 [(S)-13l] | 10.9 ± 0.9 | > 60 | 2.43 | 81 ± 2 | < 23 | > 60 | 30.2 ± 1.9 | 0.0224 | 26 | ~53 | 19 ± 2 | 65 ± 4 |  |  | 5.4 | 8.4 | 67 | 105 |
